Publication PMC2228302, “Crystal structure of Leishmania tarentolae hypoxanthine-guanine phosphoribosyltransferase” (BMC Structural Biology, 2007)

Biological target: Leishmania HGPRT (Leishmania tarentolae, UniProt Q9NJI5, D188E/G191E/H176R/L189Y/T185D/V183G/V192L/W184M)
Assay: biochemical
Settings: IC50, Leishmania HGPRT; approximate value stated in text
Experimental: The HGPRT enzyme inhibition assay was performed for 1 min in a 1 ml reaction volume containing 100 mM Tris-HCl, 5 mM MgSO4, 1 mM PRPP, 0.04 mM guanine at pH 7.4 [41]. An extinction coefficient of 4.2 was used.

Molecule	IC50 [µM]
Oc1ncnc2[nH]ncc12 [allopurinol]	~200

Same assay, conditions: IC50, recombinant L. tarentolae HGPRT; 1 min, 1 mM PRPP, 0.04 mM guanine, pH 7.4; six inhibitor concentrations in triplicate

Molecule	IC50 [µM]
Oc1ncnc2[nH]ncc12 [allopurinol]	194
Nc1nc2c(nc(N)n2[C@@H]2O[C@H](CO)[C@@H](O)[C@H]2O)c(=O)[nH]1 [8-aminoguanosine]	94
O=C(O)c1cc(=O)[nH]c(=O)[nH]1 [Orotic acid]	432
CO/N=C(\C(=O)N[C@@H]1C(=O)N2C(C(=O)O)=C(COC(C)=O)CS[C@H]12)c1csc(N)n1 [cefotaxime]	180

Same assay, conditions: recombinant L. tarentolae HGPRT; 1 min, 1 mM PRPP, 0.04 mM guanine, pH 7.4; six inhibitor concentrations in triplicate; read-out: IC50

Molecule	IC50 [µM]
O=c1[nH]cnc2c([C@@H]3O[C@H](CO)[C@@H](O)[C@H]3O)n[nH]c12 [formicin B]	260
azaadenine	210
Nc1ncnc2c1ccn2[C@@H]1O[C@H](CO)[C@@H](O)[C@H]1O [tubercidine]	533
Cc1cnc(=O)[nH]c1N [5-metilcitosine]	412
Nc1nc(Cl)c2[nH]cnc2n1 [6-cloroguanine]	838
O=c1[nH]c(=O)n([C@H]2C[C@H](O)[C@@H](CO)O2)cc1Br [5-bromodeoxiuridine]	350

Biological target: Leishmania tarentolae hypoxanthine-guanine phosphoribosyltransferase (Leishmania tarentolae)
Assay: crystal structure; co-crystallized with GMP in 19% PEG 4000, 20.6% isopropanol, 5% glycerol, 95 mM tri-sodium citrate, pH 5.6; space group P212121; two monomers (chains A and B) in the asymmetric unit; 2.1 Å
Settings: not given

Molecule	stoichiometry N
Leishmania tarentolae hypoxanthine-guanine phosphoribosyltransferase (enzyme)	2
